Experimental data taken from patent US20230044787A1, “TRICYCLE DIHYDROIMIDAZOPYRIMIDONE DERIVATIVE, PREPARATION METHOD THEREOF, PHARMACEUTICAL COMPOSITION AND USE THEREOF” (priority 2019, published 2023).

Molecular target: T1, Lp-PLA2 (Homo sapiens, UniProt Q13093)
T1 construct: aliquoted and thawed 40 μL of pooled human plasma was previously added; from tissue; host or cells: pooled human plasma
T1 sequence (Q13093 22-441): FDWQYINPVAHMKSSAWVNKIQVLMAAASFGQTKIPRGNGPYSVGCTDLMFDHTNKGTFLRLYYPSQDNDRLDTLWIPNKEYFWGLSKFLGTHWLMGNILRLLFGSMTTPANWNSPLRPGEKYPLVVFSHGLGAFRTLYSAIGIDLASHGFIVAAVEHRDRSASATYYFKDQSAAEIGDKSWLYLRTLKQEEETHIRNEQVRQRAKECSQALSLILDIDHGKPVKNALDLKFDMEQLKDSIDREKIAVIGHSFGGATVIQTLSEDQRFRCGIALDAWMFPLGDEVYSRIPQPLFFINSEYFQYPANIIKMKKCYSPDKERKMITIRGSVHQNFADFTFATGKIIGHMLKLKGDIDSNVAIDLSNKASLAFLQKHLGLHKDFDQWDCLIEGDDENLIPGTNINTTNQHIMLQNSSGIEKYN
Test: Lipoprotein-associated phospholipase A2 (Lp-PLA2) human plasma assay (Thio-PAF assay)
Type: biochemical
Conditions: Lp-PLA2 human plasma assay (Thio-PAF), pooled human plasma, 30-min pre-incubation at room temperature

Row | Structure (SMILES) | IC50 [nM]
1 | O=c1nc(OCc2cc(F)c(Oc3ccnc(C(F)(F)F)c3)c(F)c2)c(F)c2n1C[C@]13CO[C@H](CN21)C3 [Example 88, (3S,11aR)-7-((3,5-difluoro-4-((2-(trifluoromethyl)pyridin-4-yl)oxy)benzyl)oxy)-6-fluoro-3,4-dihydro-1H,9H,11H-3,11a-methanopyrimido[6′,1′:2,3] imidazo[5,1-c][1,4]oxazin-9-one] | 5.2
2 | Cc1cc(Oc2c(F)cc(COc3nc(=O)n4c(c3F)N3C[C@@H]5C[C@]3(CO5)C4)cc2F)ccn1 [Example 89, (3S,11aR)-7-((3,5-difluoro-4-((2-methyl-pyridin-4-yl)oxy)benzyl)oxy)-6-fluoro-3,4-dihydro-1H,9H,11H-3,11a-methanopyrimido[6′,1′:2,3] imidazo[5,1-c][1,4]oxazin-9-one] | 10.9
3 | N#Cc1cc(Oc2ccc(COc3nc(=O)n4c(c3F)N3C[C@@H]5C[C@]3(CO5)C4)cc2F)cc(C(F)(F)F)c1 [Example 90] | 4.8
4 | O=c1nc(OCc2cc(F)c(Oc3ccnc(C(F)(F)F)c3)c(F)c2)c(Cl)c2n1C[C@]13CO[C@H](CN21)C3 [Example 91, (3S,11aR)-7-((3,5-difluoro-4-((2-(trifluoromethyl)pyridin-4-yl)oxy)benzyl)oxy)-6-chloro-3,4-dihydro-1H,9H,11H-3,11a-methanopyrimido[6′,1′:2,3] imidazo[5,1-c][1,4]oxazin-9-one] | 4.8
5 | Cc1c(OCc2cc(F)c(Oc3ccnc(C(F)(F)F)c3)c(F)c2)nc(=O)n2c1N1C[C@@H]3C[C@]1(CO3)C2 [Example 92, (3S,11aR)-7-((3,5-difluoro-4-((2-(trifluoromethyl)pyridin-4-yl)oxy)benzyl)oxy)-6-methyl-3,4-dihydro-1H,9H,11H-3,11a-methanopyrimido[6′,1′:2,3] imidazo[5,1-c][1,4]oxazin-9-one] | 5.6
6 | [2H]C1([2H])n2c(cc(OCc3cc(F)c(Oc4ccnc(C(F)(F)F)c4)c(F)c3)nc2=O)N2C[C@@H]3C[C@@]21CO3 [Example 93] | 3.7
7 | Cn1cc(Oc2c(F)cc(COc3cc4n(c(=O)n3)CC35CC(CN43)C5)cc2F)cn1 [Example 94, 3-((3,5-difluoro-4-((1-methyl-1H-pyrazol-4-yl)oxy)benzyl)oxy)-7,8-dihydro-1H,6H,9H-7,8a-methanopyrrolo[1′,2′:3,4] imidazo[1,2-c]pyrimidin-1-one] | 92.7
8 | N#Cc1cc(Oc2ccc(COc3cc4n(c(=O)n3)CC35CC(CN43)C5)cc2F)cc(C(F)(F)F)c1 [Example 95] | 7.4
9 | O=c1nc(OCc2ccc(Oc3ccnc(C(F)(F)F)c3)cc2F)cc2n1C[C@]13CO[C@H](CN21)C3 [Example 96, (3S,11aR)-7-((2-difluoro-4-((2-(trifluoromethyl)pyridin-4-yl)oxy)benzyl)oxy)-3,4-dihydro-1H,9H,11H-3,11a-methanopyrimido[6′1′:2,3] imidazo[5,1-c][1,4]oxazin-9-one] | 4.7
10 | O=c1nc(OCc2ccc(F)c(F)c2)cc2n1CC13CC(CN21)C3 [Example 97, 3-((3,4-difluorobenzyl)oxy)-7,8-dihydro-1H,6H,9H-7,8a-methanopyrrolo[1′,2′:3,4] imidazo[1,2-c]pyrimidin-1-one] | 14.2
11 | O=c1nc(OCc2cc(F)c(F)c(F)c2)cc2n1CC13CC(CN21)C3 [Example 98, 3-((3,4,5-trifluorobenzyl)oxy)-7,8-dihydro-1H,6H,9H-7,8a-methanopyrrolo[1′,2′:3,4] imidazo[1,2-c]pyrimidin-1-one] | 30.2
12 | O=c1nc(OCCc2cc(F)c(Oc3ccnc(C(F)(F)F)c3)c(F)c2)cc2n1C[C@]13CO[C@H](CN21)C3 [Example 99, (3S,11aR)-7-(3,5-difluoro-4-((2-(trifluoromethyl)pyridin-4-yl)oxy)phenethoxy)-3,4-dihydro-1H,9H,11H-3,11a-methanopyrimido[6′-,1′:2,3] imidazo[5,1-c][1,4]oxazin-9-one] | 5.6
13 | O=c1nc(OCCc2ccc(Oc3ccnc(C(F)(F)F)c3)cc2)cc2n1C[C@]13CO[C@H](CN21)C3 [Example 100, (3S,11aR)-7-(4-(2-(trifluoromethyl)pyridin-4-yloxy)phenethoxy)-3,4-dihydro-1H,9H,11H-3,11a-methanopyrimido[6′-,1′:2,3] imidazo[5,1-c][1,4]oxazin-9-one] | 5.9
14 | N#Cc1cc(CCOc2cc3n(c(=O)n2)C[C@]24CO[C@H](CN32)C4)ccc1Oc1ccnc(C(F)(F)F)c1 [Example 101, 5-(2-(((3S,11aR)-9-oxo-3,4-dihydro-1H,9H,11H-3,11a-methanopyrimido[6′-,1′:2,3]imidazo[5,1-c][1,4]oxazin-7-yl)oxy)ethyl)-2-((2-(trifluoromethyl)pyridin-4-yl)oxy)benzonitrile] | 15.1
15 | N#Cc1c(OCc2cc(F)c(Oc3ccnc(C(F)(F)F)c3)c(F)c2)nc(=O)n2c1N1C[C@@H]3C[C@]1(CO3)C2 [Example 102, (3S,11aR)-7-((3,5-difluoro-4-((2-(trifluoromethyl)pyridin-4-yl)oxy)benzyl)oxy)-6-cyano-3,4-dihydro-1H,9H,11H-3,11a-methanopyrimido[6′,1′:2,3] imidazo[5,1-c][1,4]oxazin-9-one] | 7.6
16 | N#Cc1cc(COc2cc3n(c(=O)n2)CC24CC(CN32)C4)ccc1F [Example 103] | 6.2
17 | CCc1c(OCc2cc(F)c(Oc3ccnc(C(F)(F)F)c3)c(F)c2)nc(=O)n2c1N1C[C@@H]3C[C@]1(CO3)C2 [Example 104, (3S,11aR)-7-((3,5-difluoro-4-((2-(trifluoromethyl)pyridin-4-yl)oxy)benzyl)oxy)-6-ethyl-3,4-dihydro-1H,9H,11H-3,11a-methanopyrimido[6′,1′:2,3] imidazo[5,1-c][1,4]oxazin-9-one] | 8.6
18 | O=c1nc(OCc2ccc(Oc3ccnc(C(F)(F)F)c3)cc2F)cc2n1CC13CC(CN21)C3 [Example 105, 3-((2-fluoro-4-((2-(trifluoromethyl)pyridin-4-yl)oxy)benzyl)oxy)-7,8-dihydro-1H,6H,9H-7,8a-methanopyrrolo[1′,2′:3,4] imidazo[1,2-c]pyrimidin-1-one] | 10.8
19 | COc1c(OCc2cc(F)c(Oc3ccnc(C(F)(F)F)c3)c(F)c2)nc(=O)n2c1N1C[C@@H]3C[C@]1(CO3)C2 [Example 106, (3S,11aR)-7-((3,5-difluoro-4-((2-(trifluoromethyl)pyridin-4-yl)oxy)benzyl)oxy)-6-methoxy-3,4-dihydro-1H,9H,11H-3,11a-methanopyrimido[6′,1′:2,3] imidazo[5,1-c][1,4]oxazin-9-one] | 1
20 | CC(C)c1c(OCc2cc(F)c(Oc3ccnc(C(F)(F)F)c3)c(F)c2)nc(=O)n2c1N1C[C@@H]3C[C@]1(CO3)C2 [Example 107, (3S,11aR)-7-((3,5-difluoro-4-((2-(trifluoromethyl)pyridin-4-yl)oxy)benzyl)oxy)-6-isopropyl-3,4-dihydro-1H,9H,11H-3,11a-methanopyrimido[6′,1′:2,3] imidazo[5,1-c][1,4]oxazin-9-one] | 9.5
21 | Cc1c(OCc2ccc(Oc3ccnc(C(F)(F)F)c3)cc2)nc(=O)n2c1N1C[C@@H]3C[C@]1(CO3)C2 [Example 108, (3S,11aR)-7-((4-((2-(trifluoromethyl)pyridin-4-yl)oxy)benzyl)oxy)-6-methyl-3,4-dihydro-1H,9H,11H-3,11a-methanopyrimido[6′,1′:2,3] imidazo[5,1-c][1,4]oxazin-9-one] | 5
22 | O=c1nc(OCc2ccc(Oc3ccnc(C(F)(F)F)c3)cc2)cc2n1CC13CC(CN21)C3 [Example 109, 3-((4-((2-(trifluoromethyl)pyridin-4-yl)oxy)benzyl)oxy)-7,8-dihydro-1H,6H,9H-7,8a-methanopyrrolo[1′,2′:3,4] imidazo[1,2-c]pyrimidin-1-one] | 14
23 | N#Cc1cc(COc2cc3n(c(=O)n2)C[C@@]24CO[C@@H](CN32)C4)ccc1Oc1ccnc(C(F)(F)F)c1 [Example 110, 5-((((3R,11aS)-9-oxo-3,4-dihydro-1H,9H,11H-3,11a-methanopyrimido[6′,1′:2,3]imidazo[5,1-c][1,4]oxazin-7-yl)oxy)methyl)-2-((2-(trifluoromethyl)pyridin-4-yl)oxy)benzonitrile] | 5.3
24 | O=c1nc(OCCc2ccc(Oc3ccnc(C(F)(F)F)c3)cc2)cc2n1CC13CC(CN21)C3 [Example 111, 3-(4-((2-(trifluoromethyl)pyridin-4-yl)oxy)phenethoxy)-7,8-dihydro-1H,6H,9H-7,8a-methanopyrrolo[1′,2′:3,4] imidazo[1,2-c]pyrimidin-1-one] | 11.4
25 | O=c1nc(OCc2cc(F)c(Oc3ccnc(C(F)(F)F)c3)c(F)c2)cc2n1CC13CCC(COC1)N23 (stereo not drawn) [Example 112, 7-((3,5-difluoro-4-((2-(trifluoromethyl)pyridin-4-yl)oxy)benzyl)oxy)-3,4-dihydro-1H,9H,11H-4,11a-ethanopyrimido[6′,1′:2,3] imidazo[5,1-c][1,4]oxazin-9-one] | 5.1
26 | O=c1nc(OCc2ccc(Oc3ccnc(C(F)(F)F)c3)c(F)c2)cc2n1CC13CC(CN21)C3 [Example 113, 3-((3-fluoro-4-((2-(trifluoromethyl)pyridin-4-yl)oxy)benzyl)oxy)-7,8-dihydro-1H,6H,9H-7,8a-methanopyrrolo[1′,2′:3,4] imidazo[1,2-c]pyrimidin-1-one] | 5.7
27 | COc1c(OCc2cc(F)c(F)c(F)c2)nc(=O)n2c1N1C[C@@H]3C[C@]1(CO3)C2 [Example 114, (3S,11aR)-7-((3,4,5-trifluorobenzyl)oxy)-6-methoxy-3,4-dihydro-1H,9H,11H-3,11a-methanopyrimido[6′,1′:2,3] imidazo[5,1-c][1,4]oxazin-9-one] | 5.7
